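Protocol summary: plate cells (96-well), add compound at 5 concentrations, incubate 48 h, interpolate endpoints linearly. GI50: concentration for 50% inhibition of growth.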 The source made the active and inactive calls. No stated cut-off is given here; in the data, active = GI50 up to about 1.1 µM and inactive = higher.
Tests used:
Assay in all cases: NCI tumour cell line growth inhibition, 48 h
UACC-257 = test system: UACC-257
UACC-62 = test system: UACC-62
NCI-H522 = test system: NCI-H522
RPMI-8226 = test system: RPMI-8226
LOX IMVI = test system: LOX IMVI
SK-MEL-28 = test system: SK-MEL-28
HOP-62 = test system: HOP-62
KM12 = test system: KM12
MDA-MB-231 = test system: MDA-MB-231
MOLT-4 = test system: MOLT-4
SK-MEL-2 = test system: SK-MEL-2
A549 = test system: A549
Malme-3M = test system: Malme-3M
ACHN = test system: ACHN
HL-60 = test system: HL-60
SF-539 = test system: SF-539
786-0 = test system: 786-0
COLO 205 = test system: COLO 205
TK-10 = test system: TK-10
HT-29 = test system: HT-29
HCC 2998 = test system: HCC 2998
NCI-H226 = test system: NCI-H226
MDA-N = test system: MDA-N
IGROV-1 = test system: IGROV-1
OVCAR-3 = test system: OVCAR-3
NCI/ADR-RES = test system: NCI/ADR-RES
UO-31 = test system: UO-31
Hs-578T = test system: Hs-578T
SN12C = test system: SN12C
T47D = test system: T47D
SK-MEL-5 = test system: SK-MEL-5
NCI-H460 = test system: NCI-H460
SNB-19 = test system: SNB-19
SW-620 = test system: SW-620
U-251 = test system: U-251
MDA-MB-435 = test system: MDA-MB-435
DU-145 = test system: DU-145
HCT-116 = test system: HCT-116
MCF7 = test system: MCF7
SR = test system: SR
SF-295 = test system: SF-295
NCI-H23 = test system: NCI-H23
BT-549 = test system: BT-549
K562 = test system: K562
CAKI-1 = test system: CAKI-1
SF-268 = test system: SF-268
OVCAR-4 = test system: OVCAR-4
EKVX = test system: EKVX
OVCAR-8 = test system: OVCAR-8
CCRF-CEM = test system: CCRF-CEM
HCT-15 = test system: HCT-15
M14 = test system: M14
HOP-92 = test system: HOP-92
SNB-75 = test system: SNB-75
OVCAR-5 = test system: OVCAR-5
SK-OV-3 = test system: SK-OV-3
PC-3 = test system: PC-3
A498 = test system: A498
RXF 393 = test system: RXF 393

In the case of `CN1C(=O)C2CCC(=O)N2c2cccnc21` (stereo not drawn), the GI50 (UACC-257) was > 100 µM (inactive), the GI50 (UACC-62) was > 100 µM (inactive) and the GI50 (NCI-H522) was > 100 µM (inactive). The GI50 (RPMI-8226) was > 100 µM (inactive), the GI50 (LOX IMVI) was > 100 µM (inactive) and the GI50 (SK-MEL-28) was > 100 µM (inactive). The GI50 (HOP-62) was > 100 µM (inactive), the GI50 (KM12) was > 100 µM (inactive) and the GI50 (MDA-MB-231) was > 100 µM (inactive). For the same compound, the GI50 (MOLT-4) was > 100 µM (inactive), the GI50 (SK-MEL-2) was > 100 µM (inactive) and the GI50 (A549) was > 100 µM (inactive). For the same compound, the GI50 (Malme-3M) was > 100 µM (inactive), the GI50 (ACHN) was > 100 µM (inactive) and the GI50 (HL-60) was > 100 µM (inactive). For the same compound, the GI50 (SF-539) was > 100 µM (inactive), the GI50 (786-0) was > 100 µM (inactive) and the GI50 (COLO 205) was > 100 µM (inactive). The GI50 (TK-10) was > 100 µM (inactive), the GI50 (HT-29) was > 100 µM (inactive) and the GI50 (HCC 2998) was > 100 µM (inactive). The GI50 (NCI-H226) was > 100 µM (inactive), the GI50 (MDA-N) was > 100 µM (inactive) and the GI50 (IGROV-1) was > 100 µM (inactive). The GI50 (OVCAR-3) was > 100 µM (inactive), the GI50 (NCI/ADR-RES) was > 100 µM (inactive) and the GI50 (UO-31) was > 100 µM (inactive). The GI50 (Hs-578T) was > 100 µM (inactive), the GI50 (SN12C) was > 100 µM (inactive) and the GI50 (T47D) was > 100 µM (inactive). For the same compound, the GI50 (SK-MEL-5) was > 100 µM (inactive), the GI50 (NCI-H460) was > 100 µM (inactive) and the GI50 (SNB-19) was > 100 µM (inactive). For the same compound, the GI50 (SW-620) was > 100 µM (inactive), the GI50 (U-251) was > 100 µM (inactive) and the GI50 (MDA-MB-435) was > 100 µM (inactive). The GI50 (DU-145) was > 100 µM (inactive), the GI50 (HCT-116) was > 100 µM (inactive) and the GI50 (MCF7) was > 100 µM (inactive). The GI50 (SR) was > 100 µM (inactive), the GI50 (SF-295) was > 100 µM (inactive) and the GI50 (NCI-H23) was > 100 µM (inactive). For the same compound, the GI50 (BT-549) was > 100 µM (inactive), the GI50 (K562) was > 100 µM (inactive) and the GI50 (CAKI-1) was > 100 µM (inactive). For the same compound, the GI50 (SF-268) was > 100 µM (inactive), the GI50 (OVCAR-4) was > 100 µM (inactive) and the GI50 (EKVX) was > 100 µM (inactive). The GI50 (OVCAR-8) was > 100 µM (inactive), the GI50 (CCRF-CEM) was > 100 µM (inactive) and the GI50 (HCT-15) was greater than 100 µM.
In the case of `Clc1ccc2c(c1)CC1C[N+]3=C(CCCCC3)C1=C2` (stereo not drawn), the GI50 (UACC-257) was 28.8 µM (inactive), the GI50 (M14) was 57.3 µM (inactive) and the GI50 (UACC-62) was > 100 µM (inactive). For the same compound, the GI50 (NCI-H522) was 38.8 µM (inactive), the GI50 (HOP-92) was 7.1 µM (inactive) and the GI50 (LOX IMVI) was 43.3 µM (inactive). The GI50 (SK-MEL-28) was > 100 µM (inactive), the GI50 (HOP-62) was > 100 µM (inactive) and the GI50 (KM12) was 50.5 µM (inactive). The GI50 (MDA-MB-231) was 33 µM (inactive), the GI50 (MOLT-4) was > 100 µM (inactive) and the GI50 (SK-MEL-2) was 28.8 µM (inactive). The GI50 (A549) was 30.3 µM (inactive), the GI50 (Malme-3M) was 63 µM (inactive) and the GI50 (ACHN) was > 100 µM (inactive). The GI50 (HL-60) was > 100 µM (inactive), the GI50 (786-0) was > 100 µM (inactive) and the GI50 (COLO 205) was 28.9 µM (inactive). The GI50 (TK-10) was 69.2 µM (inactive), the GI50 (HT-29) was 37.8 µM (inactive) and the GI50 (NCI-H226) was 69.7 µM (inactive). The GI50 (SNB-75) was 0.349 µM (active), the GI50 (MDA-N) was 94.2 µM (inactive) and the GI50 (IGROV-1) was 37.2 µM (inactive). For the same compound, the GI50 (OVCAR-3) was 59 µM (inactive), the GI50 (NCI/ADR-RES) was > 100 µM (inactive) and the GI50 (UO-31) was > 100 µM (inactive). The GI50 (OVCAR-5) was > 100 µM (inactive), the GI50 (Hs-578T) was 85.3 µM (inactive) and the GI50 (SN12C) was 80.4 µM (inactive). For the same compound, the GI50 (T47D) was 29.6 µM (inactive), the GI50 (SK-MEL-5) was 30.3 µM (inactive) and the GI50 (SK-OV-3) was > 100 µM (inactive). For the same compound, the GI50 (NCI-H460) was 33 µM (inactive), the GI50 (SNB-19) was 51.8 µM (inactive) and the GI50 (SW-620) was > 100 µM (inactive). The GI50 (U-251) was 23.7 µM (inactive), the GI50 (MDA-MB-435) was 59.2 µM (inactive) and the GI50 (DU-145) was > 100 µM (inactive). For the same compound, the GI50 (HCT-116) was > 100 µM (inactive), the GI50 (MCF7) was 64 µM (inactive) and the GI50 (PC-3) was 42.1 µM (inactive). For the same compound, the GI50 (A498) was 18.3 µM (inactive), the GI50 (SF-295) was 64.1 µM (inactive) and the GI50 (RXF 393) was > 100 µM (inactive). For the same compound, the GI50 (NCI-H23) was 37.4 µM (inactive), the GI50 (BT-549) was 26.5 µM (inactive) and the GI50 (K562) was > 100 µM (inactive). For the same compound, the GI50 (CAKI-1) was > 100 µM (inactive), the GI50 (SF-268) was 50.8 µM (inactive) and the GI50 (OVCAR-4) was 54.8 µM (inactive). The GI50 (EKVX) was 45.6 µM (inactive), the GI50 (OVCAR-8) was 28.3 µM (inactive) and the GI50 (CCRF-CEM) was > 100 µM (inactive). It also gave a GI50 (HCT-15) greater than 100 µM.
In the case of `COc1ccc(OC)c(CC(=O)c2ccc(O)c(C(=O)NCCc3ccc(F)cc3)c2)c1`, the GI50 (UACC-257) was 10.5 µM (inactive), the GI50 (M14) was 2.28 µM (inactive) and the GI50 (NCI-H522) was 2.79 µM (inactive). For the same compound, the GI50 (RPMI-8226) was 4.1 µM (inactive), the GI50 (HOP-92) was 10.8 µM (inactive) and the GI50 (LOX IMVI) was 6.95 µM (inactive). The GI50 (SK-MEL-28) was 6.41 µM (inactive), the GI50 (HOP-62) was 1.54 µM (inactive) and the GI50 (KM12) was 3.42 µM (inactive). The GI50 (MDA-MB-231) was 4.74 µM (inactive), the GI50 (MOLT-4) was 5.04 µM (inactive) and the GI50 (SK-MEL-2) was 2.96 µM (inactive). For the same compound, the GI50 (A549) was 4.49 µM (inactive), the GI50 (Malme-3M) was 2.2 µM (inactive) and the GI50 (ACHN) was 10.5 µM (inactive). The GI50 (HL-60) was 2.16 µM (inactive), the GI50 (786-0) was 4.18 µM (inactive) and the GI50 (COLO 205) was 16.9 µM (inactive). The GI50 (TK-10) was 7.23 µM (inactive), the GI50 (HT-29) was 9.86 µM (inactive) and the GI50 (HCC 2998) was 4.63 µM (inactive). For the same compound, the GI50 (SNB-75) was 2.55 µM (inactive), the GI50 (MDA-N) was 0.498 µM (active) and the GI50 (IGROV-1) was 3.27 µM (inactive). The GI50 (OVCAR-3) was 1.43 µM (inactive), the GI50 (NCI/ADR-RES) was 2.21 µM (inactive) and the GI50 (UO-31) was 4.76 µM (inactive). The GI50 (OVCAR-5) was 7.36 µM (inactive), the GI50 (Hs-578T) was 3.1 µM (inactive) and the GI50 (T47D) was 2.8 µM (inactive). For the same compound, the GI50 (SK-MEL-5) was 1.73 µM (inactive), the GI50 (SK-OV-3) was 2.69 µM (inactive) and the GI50 (NCI-H460) was 3.85 µM (inactive). For the same compound, the GI50 (SNB-19) was 3.79 µM (inactive), the GI50 (SW-620) was 4.18 µM (inactive) and the GI50 (U-251) was 3.6 µM (inactive). The GI50 (MDA-MB-435) was 0.615 µM (active), the GI50 (DU-145) was 1.73 µM (inactive) and the GI50 (MCF7) was 2.99 µM (inactive). For the same compound, the GI50 (A498) was 12.2 µM (inactive), the GI50 (SR) was 0.502 µM (active) and the GI50 (SF-295) was 2.82 µM (inactive). For the same compound, the GI50 (RXF 393) was 1.09 µM (active), the GI50 (NCI-H23) was 3.12 µM (inactive) and the GI50 (BT-549) was 12 µM (inactive). The GI50 (K562) was 3.81 µM (inactive), the GI50 (CAKI-1) was 3.26 µM (inactive) and the GI50 (SF-268) was 4.13 µM (inactive). For the same compound, the GI50 (OVCAR-4) was 4.06 µM (inactive), the GI50 (EKVX) was 7.13 µM (inactive) and the GI50 (OVCAR-8) was 4.23 µM (inactive). It also gave a GI50 (HCT-15) of 2.3 µM.
